Drawing on US7750003B2, “Compounds-943” (AstraZeneca AB, priority 2006, dated 2010), this text covers IC50 for 31 compounds.

Each structure is given as a SMILES string.

recombinant mTOR (FLAG-tagged, residues 1362-2549), sequence (P42345 1362-2549): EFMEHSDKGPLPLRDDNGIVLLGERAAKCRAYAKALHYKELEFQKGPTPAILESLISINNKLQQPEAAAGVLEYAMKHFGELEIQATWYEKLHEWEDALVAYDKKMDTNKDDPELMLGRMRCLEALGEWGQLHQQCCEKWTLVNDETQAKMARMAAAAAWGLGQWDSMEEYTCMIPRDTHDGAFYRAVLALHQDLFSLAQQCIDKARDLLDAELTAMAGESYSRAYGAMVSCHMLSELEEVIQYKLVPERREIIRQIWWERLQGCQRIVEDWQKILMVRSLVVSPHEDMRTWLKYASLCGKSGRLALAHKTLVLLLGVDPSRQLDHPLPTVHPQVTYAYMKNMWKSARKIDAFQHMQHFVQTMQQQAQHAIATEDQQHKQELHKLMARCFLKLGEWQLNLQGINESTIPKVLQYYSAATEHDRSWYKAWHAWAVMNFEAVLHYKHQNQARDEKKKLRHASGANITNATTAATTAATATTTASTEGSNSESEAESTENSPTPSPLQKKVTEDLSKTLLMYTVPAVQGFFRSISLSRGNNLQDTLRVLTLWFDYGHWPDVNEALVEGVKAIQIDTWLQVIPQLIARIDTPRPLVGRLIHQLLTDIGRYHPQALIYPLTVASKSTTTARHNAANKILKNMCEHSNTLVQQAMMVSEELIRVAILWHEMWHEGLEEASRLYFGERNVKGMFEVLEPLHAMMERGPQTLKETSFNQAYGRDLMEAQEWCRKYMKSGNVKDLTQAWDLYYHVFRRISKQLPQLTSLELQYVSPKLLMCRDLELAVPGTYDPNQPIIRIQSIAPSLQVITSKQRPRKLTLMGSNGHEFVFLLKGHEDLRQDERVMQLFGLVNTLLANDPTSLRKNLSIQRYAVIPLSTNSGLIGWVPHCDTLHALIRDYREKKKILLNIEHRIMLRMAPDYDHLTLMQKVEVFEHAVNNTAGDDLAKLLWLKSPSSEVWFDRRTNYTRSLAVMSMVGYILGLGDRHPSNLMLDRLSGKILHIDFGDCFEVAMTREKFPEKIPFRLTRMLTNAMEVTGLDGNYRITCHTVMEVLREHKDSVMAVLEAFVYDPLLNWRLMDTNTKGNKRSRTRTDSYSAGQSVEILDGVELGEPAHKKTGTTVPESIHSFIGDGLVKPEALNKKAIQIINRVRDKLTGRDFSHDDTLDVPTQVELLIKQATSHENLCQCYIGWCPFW

The target of this assay is recombinant mTOR (FLAG-tagged, residues 1362-2549) (Homo sapiens, UniProt P42345). The assay is described as follows: In vitro mTOR kinase assay (Test (a), AlphaScreen). It is filed as biochemical. The settings on record: ATP 20 μM, read-out: Test (a): IC50 versus mTOR kinase. Summed up:
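AlphaScreen read-out: a phospho-T389 p70 S6K antibody on acceptor beads captures the phosphorylated biotin-peptide on donor beads, with signal loss indicating inhibition.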
By IC50 is commonly meant the concentration at which inhibition is half-maximal. As to `CC(C)S(=O)(=O)Cc1cc(N2CCOC[C@@H]2C)nc(-c2ccc(NC(=O)NCCN(C)C)cc2)n1` [Example 20s, 3-(2-dimethylaminoethyl)-1-[4-[4-[(3S)-3-methylmorpholin-4-yl]-6-(propan-2-ylsulfonylmethyl)pyrimidin-2-yl]phenyl]urea], the IC50 worked out at 0.62 µM. Take `CC(C)S(=O)(=O)Cc1cc(N2CCOC[C@@H]2C)nc(-c2ccc(NC(=O)NC3CCN(C)CC3)cc2)n1` [Example 20t, 1-[4-[4-[(3S)-3-methylmorpholin-4-yl]-6-(propan-2-ylsulfonylmethyl)pyrimidin-2-yl]phenyl]-3-(1-methyl-4-piperidyl)urea]: the IC50 came to 0.6 µM.

As to `COCCNC(=O)Nc1ccc(-c2nc(CS(=O)(=O)C(C)C)cc(N3CCOC[C@@H]3C)n2)cc1` [Example 20u, 3-(2-methoxyethyl)-1-[4-[4-[(3S)-3-methylmorpholin-4-yl]-6-(propan-2-ylsulfonylmethyl)pyrimidin-2-yl]phenyl]urea], the 50% inhibitory concentration (IC50) was determined as 0.27 µM. In the case of `CNC(=O)Nc1ccc(-c2nc(N3CCOCC3)cc(C(C)(C)S(C)(=O)=O)n2)cc1` [Example 21, 3-Methyl-1-[4-[4-(2-methylsulfonylpropan-2-yl)-6-morpholin-4-yl-pyrimidin-2-yl]phenyl]urea] it was 0.05 µM; in that of `CCNC(=O)Nc1ccc(-c2nc(N3CCOCC3)cc(C(C)(C)S(C)(=O)=O)n2)cc1` [Example 21a, 1-ethyl-3-[4-[4-(2-methylsulfonylpropan-2-yl)-6-morpholin-4-yl-pyrimidin-2-yl]phenyl]urea], 0.73 µM; in that of `CC(C)(c1cc(N2CCOCC2)nc(-c2ccc(NC(=O)NC3CC3)cc2)n1)S(C)(=O)=O` [Example 21b, 3-cyclopropyl-1-[4-[4-(2-methylsulfonylpropan-2-yl)-6-morpholin-4-yl-pyrimidin-2-yl]phenyl]urea], 0.36 µM. For `CN(C)CCNC(=O)Nc1ccc(-c2nc(N3CCOCC3)cc(C(C)(C)S(C)(=O)=O)n2)cc1` [Example 21c, 3-(2-dimethylaminoethyl)-1-[4-[4-(2-methylsulfonylpropan-2-yl)-6-morpholin-4-yl-pyrimidin-2-yl]phenyl]urea] the value was 0.48 µM.

As to `CN1CCC(NC(=O)Nc2ccc(-c3nc(N4CCOCC4)cc(C(C)(C)S(C)(=O)=O)n3)cc2)CC1` [Example 21d, 3-(1-methyl-4-piperidyl)-1-[4-[4-(2-methylsulfonylpropan-2-yl)-6-morpholin-4-yl-pyrimidin-2-yl]phenyl]urea], the IC50 worked out at 0.27 µM. For `COCCNC(=O)Nc1ccc(-c2nc(N3CCOCC3)cc(C(C)(C)S(C)(=O)=O)n2)cc1` [Example 21e, 3-(2-methoxyethyl)-1-[4-[4-(2-methylsulfonylpropan-2-yl)-6-morpholin-4-yl-pyrimidin-2-yl]phenyl]urea] the value was 1 µM. For `CNC(=O)Nc1ccc(-c2nc(N3CCOC[C@@H]3C)cc(C(C)(C)S(C)(=O)=O)n2)cc1` [Example 21f, 3-methyl-1-[4-[4-[(3S)-3-methylmorpholin-4-yl]-6-(2-methylsulfonylpropan-2-yl)pyrimidin-2-yl]phenyl]urea] the value was 0.017 µM. For `CCNC(=O)Nc1ccc(-c2nc(N3CCOC[C@@H]3C)cc(C(C)(C)S(C)(=O)=O)n2)cc1` [Example 21g, 1-ethyl-3-[4-[4-[(3S)-3-methylmorpholin-4-yl]-6-(2-methylsulfonylpropan-2-yl)pyrimidin-2-yl]phenyl]urea] the value was 0.02 µM.

Take `C[C@H]1COCCN1c1cc(C(C)(C)S(C)(=O)=O)nc(-c2ccc(NC(=O)NCCN(C)C)cc2)n1` [Example 21i, 3-(2-dimethylaminoethyl)-1-[4-[4-[(3S)-3-methylmorpholin-4-yl]-6-(2-methylsulfonylpropan-2-yl)pyrimidin-2-yl]phenyl]urea]: the concentration for half-maximal inhibition (IC50) turned out to be 0.076 µM. On to `C[C@H]1COCCN1c1cc(C(C)(C)S(C)(=O)=O)nc(-c2ccc(NC(=O)NC3CCN(C)CC3)cc2)n1` [Example 21j, 1-[4-[4-[(3S)-3-methylmorpholin-4-yl]-6-(2-methylsulfonylpropan-2-yl)pyrimidin-2-yl]phenyl]-3-(1-methyl-4-piperidyl)urea], for which the IC50 amounted to 0.51 µM. Consider `COCCNC(=O)Nc1ccc(-c2nc(N3CCOC[C@@H]3C)cc(C(C)(C)S(C)(=O)=O)n2)cc1` [Example 21k, 3-(2-methoxyethyl)-1-[4-[4-[(3S)-3-methylmorpholin-4-yl]-6-(2-methylsulfonylpropan-2-l)pyrimidin-2-yl]phenyl]urea], for which the IC50 was 0.31 µM.

As to `C[C@H]1COCCN1c1cc(CS(C)(=O)=O)nc(-c2ccc(NC(=O)Nc3ncccn3)cc2)n1` [Example 22a, 1-[4-[4-[(3S)-3-methylmorpholin-4-yl]-6-(methylsulfonylmethyl)pyrimidin-2-yl]phenyl]-3-pyrimidin-2-yl-urea], the IC50 was found to be 0.06 µM. Turning to `Cc1cccc(C)c1NC(=O)Nc1ccc(-c2nc(CS(C)(=O)=O)cc(N3CCOC[C@@H]3C)n2)cc1` [Example 22b, 1-(2,6-dimethylphenyl)-3-[4-[4-[(3S)-3-methylmorpholin-4-yl]-6-(methylsulfonylmethyl)pyrimidin-2-yl]phenyl]urea], the IC50 came out at 1.6 µM. For `Cc1cc(NC(=O)Nc2ccc(-c3nc(CS(C)(=O)=O)cc(N4CCOC[C@@H]4C)n3)cc2)no1` [Example 22d, 3-[4-[4-[(3S)-3-methylmorpholin-4-yl]-6-(methylsulfonylmethyl)pyrimidin-2-yl]phenyl]-1-(5-methyl-1,2-oxazol-3-yl)urea] the value was 0.0048 µM. For `Cc1oncc1NC(=O)Nc1ccc(-c2nc(CS(C)(=O)=O)cc(N3CCOC[C@@H]3C)n2)cc1` [Example 22e, 3-[4-[4-[(3S)-3-methylmorpholin-4-yl]-6-(methylsulfonylmethyl)pyrimidin-2-yl]phenyl]-1-(5-methyl-1,2-oxazol-4-yl)urea] the value was 0.56 µM.

As to `C[C@H]1COCCN1c1cc(CS(C)(=O)=O)nc(-c2ccc(NC(=O)Nc3cnn(C)c3)cc2)n1` [Example 22f, 1-[4-[4-[(3S)-3-methylmorpholin-4-yl]-6-(methylsulfonylmethyl)pyrimidin-2-yl]phenyl]-3-(1-methylpyrazol-4-yl)urea], the half-inhibitory concentration (IC50) came out at 0.091 µM. In the case of `C[C@H]1COCCN1c1cc(CS(C)(=O)=O)nc(-c2ccc(NC(=O)Nc3cc[nH]c(=O)c3)cc2)n1` [Example 22g, 1-[4-[4-[(3S)-3-methylmorpholin-4-yl]-6-(methylsulfonylmethyl)pyrimidin-2-yl]phenyl]-3-(2-oxo-1H-pyridin-4-yl)urea] it was 0.0045 µM; in that of `Cc1nn(C)c(C)c1NC(=O)Nc1ccc(-c2nc(CS(C)(=O)=O)cc(N3CCOC[C@@H]3C)n2)cc1` [Example 22h, 3-[4-[4-[(3S)-3-methylmorpholin-4-yl]-6-(methylsulfonylmethyl)pyrimidin-2-yl]phenyl]-1-(1,3,5-trimethylpyrazol-4-yl)urea], 1.5 µM; in that of `Cc1n[nH]c(C)c1NC(=O)Nc1ccc(-c2nc(CS(C)(=O)=O)cc(N3CCOC[C@@H]3C)n2)cc1` [Example 22i, 1-(3,5-dimethyl-1H-pyrazol-4-yl)-3-[4-[4-[(3S)-3-methylmorpholin-4-yl]-6-(methylsulfonylmethyl)pyrimidin-2-yl]phenyl]urea], 4.3 µM. As to `CNC(=O)NC1CCN(c2nc(CS(C)(=O)=O)cc(N3CCOC[C@@H]3C)n2)CC1` [Example 23, 3-Methyl-1-[1-[4-[(3S)-3-methylmorpholin-4-yl]-6-(methylsulfonylmethyl)pyrimidin-2-yl]-4-piperidyl]urea], the IC50 is 5.6 µM. For `CCNC(=O)NC1CCN(c2nc(CS(C)(=O)=O)cc(N3CCOC[C@@H]3C)n2)CC1` [Example 23a, 1-ethyl-3-[1-[4-[(3S)-3-methylmorpholin-4-yl]-6-(methylsulfonylmethyl)pyrimidin-2-yl]-4-piperidyl]urea] the value was 3.7 µM; for `C[C@H]1COCCN1c1cc(CS(C)(=O)=O)nc(-c2ccc(NC(=O)NCCc3ccccn3)cc2)n1` [Example 24, 1-[4-[4-[(3S)-3-Methylmorpholin-4-yl]-6-(methylsulfonylmethyl)pyrimidin-2-yl]phenyl]-3-(2-pyridin-2-ylethyl)urea], 0.34 µM. `C[C@H]1COCCN1c1cc(CS(C)(=O)=O)nc(-c2ccc(NC(=O)NCc3cccnc3)cc2)n1` [Example 24a, 1-[4-[4-[(3S)-3-methylmorpholin-4-yl]-6-(methylsulfonylmethyl)pyrimidin-2-yl]phenyl]-3-(pyridin-3-ylmethyl)urea]: the concentration for half-maximal inhibition (IC50) was 0.082 µM.

Regarding `CNC(=O)Nc1c(F)cc(-c2nc(N3CCOC[C@@H]3C)cc(C(C)(C)S(C)(=O)=O)n2)cc1F` [Example 24ab, 1-[2,6-difluoro-4-[4-[(3S)-3-methylmorpholin-4-yl]-6-(2-methylsulfonylpropan-2-yl)pyrimidin-2-yl]phenyl]-3-methyl-urea], the IC50 was 0.042 µM.

Take `CCNC(=O)Nc1c(F)cc(-c2nc(N3CCOC[C@@H]3C)cc(C(C)(C)S(C)(=O)=O)n2)cc1F` [Example 24ac, 3-[2,6-difluoro-4-[4-[(3S)-3-methylmorpholin-4-yl]-6-(2-methylsulfonylpropan-2-yl)pyrimidin-2-yl]phenyl]-1-ethyl-urea]: the IC50 is 0.048 µM. In the case of `C[C@H]1COCCN1c1cc(C(C)(C)S(C)(=O)=O)nc(-c2cc(F)c(NC(=O)NC3CC3)c(F)c2)n1` [Example 24ad, 3-cyclopropyl-1-[2,6-difluoro-4-[4-[(3S)-3-methylmorpholin-4-yl]-6-(2-methylsulfonylpropan-2-yl)pyrimidin-2-yl]phenyl]urea], the IC50 worked out at 0.51 µM. For `C[C@H]1COCCN1c1cc(C(C)(C)S(C)(=O)=O)nc(-c2cc(F)c(NC(=O)NCc3cnn(C)c3)c(F)c2)n1` [Example 24ae, 1-[2,6-difluoro-4-[4-[(3S)-3-methylmorpholin-4-yl]-6-(2-methylsulfonylpropan-2-yl)pyrimidin-2-yl]phenyl]-3-[(1-methylpyrazol-4-yl)methyl]urea] the value was 0.24 µM; for `C[C@H]1COCCN1c1cc(CS(C)(=O)=O)nc(-c2ccc(NC(=O)NCCc3c[nH]cn3)cc2)n1` [Example 24b, 3-[2-(1H-imidazol-4-yl)ethyl]-1-[4-[4-[(3S)-3-methylmorpholin-4-yl]-6-(methylsulfonylmethyl)pyrimidin-2-yl]phenyl]urea], 0.038 µM.
